Assay results reported in US20130289520A1, “TARGETED AND LIGHT-ACTIVATED CYTOSOLIC DRUG DELIVERY” (CHILDREN'S HOSPITAL BOSTON, priority 2010, published 2013).

Key:
LN-229 cells [1] = assay: Light-induced cytosolic release of NP cargo after endocytosis; assay type: cell-based, human; conditions: co-incubated overnight with PEI-PEG coated NPs; green light
Protocol: Following overnight NP endocytosis, cells were exposed to green excitation light (520-550 nm, MWIG3/TRITC filter) for durations ranging from 3 s to 120 s. […] Confocal micrographs were analyzed using the software package Image-J. Average cell fluorescence was determined by manual contouring of cell borders. Data were then imported into Matlab (The Mathworks) for analysis and plotting purposes. The amount of dye released in the cell cytosol following light stimulation was taken as the difference in average cell fluorescence before and after light exposure.

LN-229 cells [2] = assay: Light-activated cytosolic delivery of co-endocytosed dextran, NeutrAvidin and QD; assay type: cell-based, human; conditions: for cytosolic delivery of co-endocytosed macromolecule or particle after light stimulation of NPs: LN-229 cells, overnight co-endocytosis with NPs, TRITC-filtered light 30 to 120 s
Protocol: We then determined whether the NPs could liberate co-endocytosed macromolecules and nanoparticles. […] In this experiment, one set of LN-229 cells was incubated with NPs loaded with a releasable cargo dye (Alexa 546), while a second set was incubated with NPs carrying a dye covalently bound to their matrix during synthesis (Alexa633; so it could not be released). The two cells populations were then plated together, and incubated in the presence of dextran-FITC. […] The lower release kinetics of dextran in the case of the covalently labeled Alexa633-NPs may be explained by a lower excitation efficiency of this fluorophore through the TRITC filter set used for exposure.
LN-229 cells were biotinylated at room temperature with NHS-PEO4-biotin in D-PBS (500 μM, Pierce) supplemented with 10 mM glucose for 30 min, washed ×5 in D-PBS, and trypsinized in 0.01% trypsin/EDTA. Cells were collected with DMEM-10% FBS, centrifuged for 5 min at 1,000 rpm, and resuspended in a 50 μg/mL solution of dye-loaded NP-streptavidin in D-PBS-glucose. After 30 min, the cells were washed twice in D-PBS, resuspended in DMEM-10% FBS, and plated on 12 mm glass coverslips at a density of ˜10^5 cells/cm^2. Dextran-FITC (3 kDa, Sigma), NeutrAvidin-FITC (Pierce), or QD525-streptavidin conjugates (Invitrogen) were added to the cells at respective concentrations of 1 mg/mL, 5 μg/mL, and 2 nM. Cells were placed in a 37° C. incubator overnight with 5% CO2 to allow for coverslip attachment and simultaneous endocytosis of the surface-bound NP-streptavidin conjugates, as well as dextran, NeutrAvidin, or QDs present in the culture medium. After overnight endocytosis, cells were washed twice in D-PBS, and transferred to a live-cell imaging chamber for light stimulation and observation in D-PBS supplemented with 10 mM glucose.
For experiments involving two types of NPs, the orange pseudo-colored NPs were the post-synthesis Alexa 546 loaded NPs used in all other experiments, while the red pseudo-colored NPs were covalently bound to Alexa 633 incorporated during synthesis of the NPs (1 μL of MPTMS and 20 μL of a 10 mM stock solution of Alexa 633-maleimide were incubated overnight at room temperature, and premixed with the silicate precursors before injection into the reaction mixture. Unreacted dye was removed during the surfactant extraction process). The “orange” nanoparticles can release part of their cargo, while the dye is irreversibly bound to the silica matrix for the “red” NPs. After trypsinization, the biotinylated LN-229 cells were incubated separately with each type of NP, and remixed at 1:1 before plating and overnight incubation with dextran-FITC.

| Molecule | cytosolic release of co-endocytosed compound after light exposure (LN-229 cells [1]) | cytosolic delivery of co-endocytosed macromolecule or particle after light stimulation of NPs (LN-229 cells [2]) | time to maximum cell fluorescence (LN-229 cells [2]; following the end of 120 s light exposure) [min] | cytosolic delivery of co-endocytosed macromolecule or particle after light stimulation of NPs (LN-229 cells [2]; listed as QD525-streptavidin) |
| --- | --- | --- | --- | --- |
| O=C(O)CN(CC(=O)O)Cc1cc2c(cc1O)Oc1cc(O)c(CN(CC(=O)O)CC(=O)O)cc1C21OC(=O)c2ccccc21 [calcein] | cytosolic release | – | – | – |
| NeutrAvidin: NeutrAvidin-FITC protein conjugate (Pierce) | – | could also be delivered to the cell cytosol | > 10 | – |
| dextran-FITC | – | successfully mediated cytosolic delivery | – | – |
| quantum-dot-streptavidin conjugates: QD525-streptavidin conjugates (Invitrogen) | – | remained clustered in the endo-lysosomal compartment | – | do not migrate into the cytosol |
